For one data set, the system named is HIV-1 (IIIB). Briefly: microbe, parasite or virus in culture. Type of data set: cell-based. Particulars: Human immunodeficiency virus 1, IIIB, MT4, 120 h, read-out: MT4 EC50.
Another data set concerns pLAI reporter virus. Briefly: microbe, parasite or virus in culture. Format: cell-based, HIV. Particulars: Human immunodeficiency virus 1, MT4, 72 h.
A further data set in a line: in vitro. Particulars: human; for CC50 at 5 days: uninfected MT-4 cells.
The mark [1] stands for this setting: HIV-1 (IIIB) in MT-4 cells, 5 days incubation, Cell Titer Glo.

Where two headings read alike, the source gives them in different places.

Protocol for HIV-1 (IIIB): Compounds were tested in a high-throughput 384-well assay format for their ability to inhibit the replication of HIV-1 (IIIB) in MT-4 cells. Compounds were serially diluted (1:3) in DMSO on 384-well polypropylene plates and further diluted 200-fold into complete RPMI media (10% FBS, 1% P/S) using the Biotek Micro Flow and Labcyte ECHO acoustic dispenser. Each plate contained up to 8 test compounds, with negative (No Drug Control) and 5 μM AZT positive controls. MT-4 cells were pre-infected with 10 μL of either RPMI (mock-infected) or a fresh 1:250 dilution of HIV-1 IIIB concentrated virus stock. Infected and uninfected MT-4 cells were further diluted in complete RPMI media and added to each plate using a Micro Flow dispenser. After 5 days incubation in a humidified and temperature controlled incubator (37° C.), Cell Titer Glo (Promega) was added to the assay plates and chemiluminescence read using an Envision plate-reader.

`CNC1=NO[C@@]2(CC[C@H](C)N3C[C@H]2n2cc(C(=O)NCc4c(F)cc(F)cc4F)c(=O)c(O)c2C3=O)C1` [Example 51, (3′S,5S,7′R)-12′-hydroxy-3′-methyl-3-(methylamino)-1′,11′-dioxo-N-(2,4,6-trifluorobenzyl)-1′,4′,5′,11′-tetrahydro-3′H,4H,7′H-spiro[isoxazole-5,6′-[2,7]methanopyrido[1,2-a][1,4]diazonine]-10′-carboxamide]: the 50% effective concentration (EC50) in the data set with HIV-1 (IIIB) (setting [1]) amounted to 0.0013 µM; with pLAI reporter virus (read-out: RLUC 50% HS EC50), 0.0052 µM; with pLAI reporter virus (read-out: RLUC CCM EC50) it was 0.0003 µM. For the same compound, the CC50 at 5 days in “in vitro” amounted to 41.1 µM.

For the compound `C[C@H]1CC[C@]2(CC(N(C)C)=NO2)[C@H]2CN1C(=O)c1c(O)c(=O)c(C(=O)NCc3c(F)cc(F)cc3F)cn12` [Example 52, (3′S,5S,7′R)-3-(dimethylamino)-12′-hydroxy-3′-methyl-1′,11′-dioxo-N-(2,4,6-trifluorobenzyl)-1′,4′,5′,11′-tetrahydro-3′H,4H,7′H-spiro[isoxazole-5,6′-[2,7]methanopyrido[1,2-a][1,4]diazonine]-10′-carboxamide], the values for the EC50 in the data set with HIV-1 (IIIB), in the data set on pLAI reporter virus (read-out: RLUC 50% HS EC50) and in the data set with pLAI reporter virus (read-out: RLUC CCM EC50) were 0.0009 µM, 0.0062 µM and 0.0003 µM, respectively. In the data set “in vitro”, this compound registered a CC50 at 5 days of 27 µM.

Turning to `C[C@H]1CC[C@]2(CC(Cl)=NO2)[C@H]2CN1C(=O)c1c(O)c(=O)c(C(=O)NCc3c(F)cc(F)cc3F)cn12` [Example 53, (3′S,5S,7′R)-3-chloro-12′-hydroxy-3′-methyl-1′,11′-dioxo-N-(2,4,6-trifluorobenzyl)-1′,4′,5′,11′-tetrahydro-3′H,4H,7′H-spiro[isoxazole-5,6′-[2,7]methanopyrido[1,2-a][1,4]diazonine]-10′-carboxamide], the values for the EC50 in the data set with HIV-1 (IIIB), in the data set with pLAI reporter virus (read-out: RLUC 50% HS EC50) and with pLAI reporter virus (read-out: RLUC CCM EC50) were 0.0017 µM, 0.166 µM and 0.0003 µM, respectively. The compound further returned a CC50 at 5 days in the data set “in vitro” of 9.47 µM.

`CC1=NO[C@@]2(CC[C@H](CF)N3C[C@H]2n2cc(C(=O)NCc4c(F)cc(F)cc4F)c(=O)c(O)c2C3=O)C1` [Example 54, (3′R,5S,7′R)-3′-(fluoromethyl)-12′-hydroxy-3-methyl-1′,11′-dioxo-N-(2,4,6-trifluorobenzyl)-1′,4′,5′,11′-tetrahydro-3′H,4H,7′H-spiro[isoxazole-5,6′-[2,7]methanopyrido[1,2-a][1,4]diazonine]-10′-carboxamide]: the EC50 with HIV-1 (IIIB) (setting [1]) is 0.0007 µM; with pLAI reporter virus (read-out: RLUC 50% HS EC50), 0.0537 µM; in the data set on pLAI reporter virus (read-out: RLUC CCM EC50) it was 0.0003 µM. In addition, the CC50 at 5 days in the data set “in vitro” worked out at 27.3 µM.

Consider `C[C@H]1CC[C@@]2(CCO2)[C@H]2CN1C(=O)c1c(O)c(=O)c(C(=O)NCc3c(F)cc(F)cc3F)cn12` [Example 55, (2R,3′S,7′R)-12′-hydroxy-3′-methyl-1′,11′-dioxo-N-(2,4,6-trifluorobenzyl)-1′,4′,5′,11′-tetrahydro-3′H,7′H-spiro[oxetane-2,6′-[2,7]methanopyrido[1,2-a][1,4]diazonine]-10′-carboxamide], for which the results for the EC50 with HIV-1 (IIIB) (setting [1]), with pLAI reporter virus (read-out: RLUC 50% HS EC50) and in the data set on pLAI reporter virus (read-out: RLUC CCM EC50) were 0.0017 µM, 0.051 µM and 0.0011 µM, respectively. In addition, the CC50 at 5 days in the data set “in vitro” was ≥ 50 µM.

For `CC1=NCC2(CC[C@H](C)N3C[C@H]2n2cc(C(=O)NCc4ccc(F)cc4F)c(=O)c(O)c2C3=O)O1` (stereo partly drawn) [Example 56, (3′S,7′R)—N-(2,4-difluorobenzyl)-12′-hydroxy-2,3′-dimethyl-1′,11′-dioxo-1′,4′,5′,11′-tetrahydro-3′H,4H,7′H-spiro[oxazole-5,6′-[2,7]methanopyrido[1,2-a][1,4]diazonine]-10′-carboxamide], the EC50 came to 0.0062 µM in the data set with HIV-1 (IIIB) (setting [1]), 0.005 µM in the data set on pLAI reporter virus (read-out: RLUC 50% HS EC50) and 0.0034 µM with pLAI reporter virus (read-out: RLUC CCM EC50). In addition, the CC50 at 5 days in “in vitro” was ≥ 50 µM.

On to `C[C@H]1CC[C@@]2(CNC(=O)C2)[C@H]2CN1C(=O)c1c(O)c(=O)c(C(=O)NCc3c(F)cc(F)cc3F)cn12` [Example 57, (3R,3′S, 7′S)-12′-hydroxy-3′-methyl-1′,5,11′-trioxo-N-(2,4,6-trifluorobenzyl)-1′,4′,5′,11′-tetrahydro-3′H, 7′H-spiro[pyrrolidine-3,6′-[2,7]methanopyrido[ ],2-a][1,4]diazonine-10′-carboxamide], for which the EC50 with HIV-1 (IIIB) amounted to 0.0279 µM; in the data set with pLAI reporter virus (read-out: RLUC 50% HS EC50), 0.006 µM; with pLAI reporter virus (read-out: RLUC CCM EC50), 0.0138 µM. Further, the CC50 in the data set “in vitro” is ≥ 50 µM.

Turning to `C[C@H]1CC[C@@]2(CN(C)C(=O)O2)[C@H]2CN1C(=O)c1c(O)c(=O)c(C(=O)NCc3c(F)cc(F)cc3F)cn12` [Example 60, (3′S,5R,7′R)-12′-hydroxy-3,3′-dimethyl-1′,2,11′-trioxo-N-(2,4,6-trifluorobenzyl)-1′,4′,5′,11′-tetrahydro-3′H,7′H-spiro[oxazolidine-5,6′-[2,7]methanopyrido[1,2-a][1,4]diazonine]-10′-carboxamide], the EC50 amounted to 0.0786 µM with HIV-1 (IIIB) (setting [1]), 0.0312 µM with pLAI reporter virus (read-out: RLUC 50% HS EC50) and 0.0252 µM with pLAI reporter virus (read-out: RLUC CCM EC50). In addition, the CC50 at 5 days in “in vitro” is ≥ 50 µM.

Regarding `C[C@H]1CC[C@]2(CC(=O)N(C)C2)[C@H]2CN1C(=O)c1c(O)c(=O)c(C(=O)NCc3c(F)cc(F)cc3F)cn12` [Example 61, (3R,3′S,7′S)-12′-hydroxy-1,3′-dimethyl-1′,5,11′-trioxo-N-(2,4,6-trifluorobenzyl)-1′,4′,5′,11′-tetrahydro-3′H,7′H-spiro[pyrrolidine-3,6′-[2,7]methanopyrido[1,2-a][1,4]diazonine]-10′-carboxamide], the 50% effective concentration (EC50) in the data set on HIV-1 (IIIB) (setting [1]) came out at 0.0076 µM; in the data set on pLAI reporter virus (read-out: RLUC 50% HS EC50), 0.0034 µM; in the data set on pLAI reporter virus (read-out: RLUC CCM EC50), 0.0019 µM. Further, the CC50 at 5 days in the data set “in vitro” is ≥ 50 µM.

`C[C@H]1CC[C@@]2(CC(=O)N(C)C2)[C@H]2CN1C(=O)c1c(O)c(=O)c(C(=O)NCc3c(F)cc(F)cc3F)cn12` [Example 62, (3S,3′S,7′S)-12′-hydroxy-1,3′-dimethyl-1′,5,11′-trioxo-N-(2,4,6-trifluorobenzyl)-1′,4′,5′,11′-tetrahydro-3′H,7′H-spiro[pyrrolidine-3,6′-[2,7]methanopyrido[1,2-a][1,4]diazonine]-10′-carboxamide]: the figures for the EC50 in the data set with HIV-1 (IIIB) (setting [1]), in the data set on pLAI reporter virus (read-out: RLUC 50% HS EC50) and with pLAI reporter virus (read-out: RLUC CCM EC50) were 0.0311 µM, 0.0134 µM and 0.0078 µM, respectively. In “in vitro”, the CC50 at 5 days was ≥ 50 µM.

Consider `CCN1C[C@@]2(CC[C@H](C)N3C[C@H]2n2cc(C(=O)NCc4c(F)cc(F)cc4F)c(=O)c(O)c2C3=O)OC1=O` [Example 63, (3′S,5R,7′R)-3-ethyl-12′-hydroxy-3′-methyl-1′,2,11′-trioxo-N-(2,4,6-trifluorobenzyl)-1′,4′,5′,11′-tetrahydro-3′H,7′H-spiro[oxazolidine-5,6′-[2,7]methanopyrido[1,2-a][1,4]diazonine]-10′-carboxamide], for which the EC50 in the data set on HIV-1 (IIIB) (setting [1]) worked out at 0.0459 µM; in the data set on pLAI reporter virus (read-out: RLUC 50% HS EC50) it was 0.0155 µM; in the data set with pLAI reporter virus (read-out: RLUC CCM EC50) it was 0.0111 µM. Moreover, the CC50 at 5 days in the data set “in vitro” was ≥ 50 µM.

In the case of `COC1=NO[C@@]2(CC[C@H](C)N3C[C@H]2n2cc(C(=O)NCc4ncc(F)c(Cl)c4F)c(=O)c(O)c2C3=O)C1` [Example 64, (3′S,5S,7′R)—N-((4-chloro-3,5-difluoropyridin-2-yl)methyl)-12′-hydroxy-3-methoxy-3′-methyl-1′,11′-dioxo-1′,4′,5′,11′-tetrahydro-3′H,4H,7′H-spiro[isoxazole-5,6′-[2,7]methanopyrido[1,2-a][1,4]diazonine]-10′-carboxamide], the EC50 was 0.0029 µM in the data set on HIV-1 (IIIB), 0.3 µM in the data set with pLAI reporter virus (read-out: RLUC 50% HS EC50) and 0.0006 µM with pLAI reporter virus (read-out: RLUC CCM EC50). Moreover, the CC50 at 5 days in the data set “in vitro” was 22.9 µM.

`COC1=NO[C@@]2(CC[C@H](C)N3C[C@H]2n2cc(C(=O)NCc4cc(F)c(F)cc4F)c(=O)c(O)c2C3=O)C1` [Example 65, (3′S,5S,7′R)-12′-hydroxy-3-methoxy-3′-methyl-1′,11′-dioxo-N-(2,4,5-trifluorobenzyl)-1′,4′,5′,11′-tetrahydro-3′H,4H,7′H-spiro[isoxazole-5,6′-[2,7]methanopyrido[1,2-a][1,4]diazonine]-10′-carboxamide]: the EC50 was found to be 0.0016 µM in the data set with HIV-1 (IIIB) (setting [1]), 0.107 µM in the data set on pLAI reporter virus (read-out: RLUC 50% HS EC50) and 0.0006 µM with pLAI reporter virus (read-out: RLUC CCM EC50). Moreover, the CC50 at 5 days in the data set “in vitro” is 26.3 µM.

With `C[C@H]1CC[C@]2(CC(CF)=NO2)[C@H]2CN1C(=O)c1c(O)c(=O)c(C(=O)NCc3ncc(F)c(Cl)c3F)cn12` [Example 66, (3′S,5S,7′R)—N-((4-chloro-3,5-difluoropyridin-2-yl)methyl)-3-(fluoromethyl)-12′-hydroxy-3′-methyl-1′,11′-dioxo-1′,4′,5′,11′-tetrahydro-3′H,4H,7′H-spiro[isoxazole-5,6′-[2,7]methanopyrido[1,2-a][1,4]diazonine]-10′-carboxamide], the EC50 came out at 0.0039 µM in the data set on HIV-1 (IIIB) (setting [1]), 0.561 µM with pLAI reporter virus (read-out: RLUC 50% HS EC50) and 0.0008 µM in the data set on pLAI reporter virus (read-out: RLUC CCM EC50). In the data set “in vitro”, the CC50 at 5 days stood at 30.1 µM.

Take `CCC1=NO[C@@]2(CC[C@H](C)N3C[C@H]2n2cc(C(=O)NCc4c(F)cc(F)cc4F)c(=O)c(O)c2C3=O)C1` [Example 67, (3′S,5S,7′R)-3-ethyl-12′-hydroxy-3′-methyl-1′,11′-dioxo-N-(2,4,6-trifluorobenzyl)-1′,4′,5′,11′-tetrahydro-3′H,4H,7′H-spiro[isoxazole-5,6′-[2,7]methanopyrido[1,2-a][1,4]diazonine]-10′-carboxamide]: the EC50 in the data set on HIV-1 (IIIB) (setting [1]) worked out at 0.0013 µM; with pLAI reporter virus (read-out: RLUC 50% HS EC50) it was 0.19 µM; with pLAI reporter virus (read-out: RLUC CCM EC50), 0.0003 µM. The compound also displayed a CC50 at 5 days in “in vitro” of 20 µM.

As to `CCCC1=NO[C@@]2(CC[C@H](C)N3C[C@H]2n2cc(C(=O)NCc4c(F)cc(F)cc4F)c(=O)c(O)c2C3=O)C1` [Example 68, (3′S,5S,7′R)-12′-hydroxy-3′-methyl-1′,11′-dioxo-3-propyl-N-(2,4,6-trifluorobenzyl)-1′,4′,5′,11′-tetrahydro-3′H,4H,7′H-spiro[isoxazole-5,6′-[2,7]methanopyrido[1,2-a][1,4]diazonine]-10′-carboxamide], the EC50 in the data set on HIV-1 (IIIB) (setting [1]) was 0.0012 µM; with pLAI reporter virus (read-out: RLUC 50% HS EC50), 0.0854 µM; in the data set on pLAI reporter virus (read-out: RLUC CCM EC50), 0.0003 µM. In the data set “in vitro”, this compound returned a CC50 at 5 days of 15.7 µM.

The values above are taken from US20250115620A1, “BRIDGED TRICYCLIC CARBAMOYLPYRIDONE COMPOUNDS AND USES THEREOF” (Gilead Sciences, Inc., priority 2022, published 2025).
